Source: the supplement of paper PMC10307832

Key:
Experiment in all cases: relative viability (nuclei count vs DMSO), 5 days (fraction); higher = more cells survive
Bortezomib + Luminespib = compound: CC(C)C[C@H](NC(=O)[C@H](Cc1ccccc1)NC(=O)c1cnccn1)B(O)O [Bortezomib] + CCNC(=O)c1noc(-c2cc(C(C)C)c(O)cc2O)c1-c1ccc(CN2CCOCC2)cc1 [Luminespib] (partner 0.01 µM)
How it was run: (§1)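 Relative viability is defined as nuclei in treated wells over nuclei in vehicle wells. Duplicate plates were run and medians reported. Lung cancer cell lines in 1536-well plates were dosed by pin tool one day after seeding, with one drug or with a fixed anchor-drug dose plus five library-drug doses (not always all listed) in √10 steps, and nuclei were counted after 5 days.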

[1] = compound: CC1=CC(=NN1)NC2=CC(=NC(=N2)/C=C/C3=CC=CC=C3)N4CCN(CC4)C + O=C(CCCCCCC(=O)Nc1ccccc1)NO [Vorinostat] (partner 1 µM)
How it was run: as §1

Bortezomib + Alpelisib = compound: CC(C)C[C@H](NC(=O)[C@H](Cc1ccccc1)NC(=O)c1cnccn1)B(O)O [Bortezomib] + Cc1nc(NC(=O)N2CCC[C@H]2C(N)=O)sc1-c1ccnc(C(C)(C)C(F)(F)F)c1 [Alpelisib] (partner 2 µM)
How it was run: as §1

Obatoclax + Pictilisib = compound: COC1=CC(c2cc3ccccc3[nH]2)=N/C1=C\c1[nH]c(C)cc1C [Obatoclax] + CS(=O)(=O)N1CCN(Cc2cc3nc(-c4cccc5[nH]ncc45)nc(N4CCOCC4)c3s2)CC1 [Pictilisib] (partner 1 µM)
How it was run: as §1

Row | Cell Line | relative viability (Bortezomib + Luminespib; first compound 0.0002 µM) | relative viability (Bortezomib + Luminespib; first compound 0.000632 µM) | relative viability (Bortezomib + Luminespib; first compound 0.002 µM) | relative viability (Bortezomib + Luminespib; first compound 0.006325 µM) | relative viability (Bortezomib + Luminespib; first compound 0.02 µM) | relative viability ([1]; first compound 0.08 µM) | relative viability ([1]; first compound 0.253 µM) | relative viability ([1]; first compound 0.8 µM) | relative viability ([1]; first compound 2.53 µM) | relative viability ([1]; first compound 8 µM) | relative viability (Bortezomib + Alpelisib; first compound 0.0002 µM) | relative viability (Bortezomib + Alpelisib; first compound 0.002 µM) | relative viability (Bortezomib + Alpelisib; first compound 0.006325 µM) | relative viability (Bortezomib + Alpelisib; first compound 0.02 µM) | relative viability (Obatoclax + Pictilisib; first compound 0.01 µM) | relative viability (Obatoclax + Pictilisib; first compound 0.03162 µM) | relative viability (Obatoclax + Pictilisib; first compound 0.3162 µM) | relative viability (Obatoclax + Pictilisib; first compound 1 µM) | relative viability (Bortezomib + Alpelisib; first compound 0.000632 µM) | relative viability (Obatoclax + Pictilisib; first compound 0.1 µM)
1 | NCI-H2405 | 0.685 | 0.763 | 0.615 | 0.227 | 0.189 | 1.05 | 1.1 | 1.02 | 0.406 | 0.142 | 0.812 | 0.336 | 0.134 | 0.16 | 0.508 | 0.461 | 0.497 | 0.392 | – | –
2 | NCI-H3122 | 0.103 | 0.0765 | 0.105 | 0.118 | 0.113 | 1.03 | 0.977 | 0.989 | 0.879 | 0.511 | 0.796 | 0.798 | 0.59 | 0.17 | 0.575 | 0.634 | 0.615 | 0.497 | 0.718 | 0.767
3 | PC-3 [JPC-3] | 0.663 | 0.669 | 0.505 | 0.226 | 0.127 | 0.766 | 0.876 | 0.814 | 0.543 | 0.333 | 1.03 | 0.786 | 0.901 | 0.134 | 0.794 | 0.676 | 0.685 | 0.834 | 1.04 | 0.819
4 | PC-14 | 0.153 | 0.163 | 0.13 | 0.0991 | 0.109 | 0.673 | 0.732 | 0.491 | 0.0475 | 0.041 | 0.977 | 1.01 | 0.325 | 0.0573 | 0.712 | 0.622 | 0.716 | 0.324 | 0.909 | 0.681
5 | RERF-LC-KJ | 1.16 | 1.21 | 0.986 | 0.291 | 0.273 | 0.523 | 0.73 | 0.577 | 0.406 | 0.301 | 0.8 | 0.815 | 0.477 | 0.212 | 0.543 | 0.587 | 0.513 | 0.334 | 0.782 | 0.538
6 | SK-LU-1 | 0.218 | 0.205 | 0.201 | 0.155 | 0.118 | 0.721 | 0.805 | 0.672 | 0.323 | 0.107 | 1.09 | 0.551 | 0.154 | 0.149 | 0.616 | 0.559 | 0.364 | 0.256 | 0.963 | 0.46
7 | SK-MES-1 | 0.801 | 0.763 | 0.72 | 0.166 | 0.156 | 1.09 | 1.25 | 0.985 | 0.191 | 0.165 | 0.86 | 0.825 | 0.475 | 0.206 | 0.393 | 0.379 | 0.402 | 0.268 | 0.723 | 0.392
8 | SW 1573 | 0.162 | 0.222 | 0.214 | 0.0768 | 0.0532 | 0.703 | 0.751 | 0.572 | 0.156 | 0.102 | 0.833 | 0.813 | 0.164 | 0.0782 | 0.466 | 0.539 | 0.44 | 0.519 | 0.774 | 0.506
9 | UMC-11 | 0.871 | 0.978 | 0.972 | 0.597 | 0.167 | 0.371 | 0.363 | 0.201 | 0.117 | 0.0745 | 0.842 | 1.09 | 0.223 | 0.136 | 0.849 | 0.819 | 0.645 | 0.298 | 0.994 | 0.806
